The values that follow are results of earlier work, collected in patent publication US20030232019A1, “Inhalable formulations for sustained release” (Advanced Inhalation Research, Inc., priority 2002, published 2003).

The conditions of this series: healthy volunteers after inhalation.

In the case of insulin, the “time to half-maximal action (glucose infusion rate)” value is recorded as “about 30 minutes”.
